Assay results as given in patent US20210060033A1, “ORALLY ADMINISTERED COMBINATIONS OF BETA-LACTAM ANTIBIOTICS AND AVIBACTAM DERIVATIVES FOR TREATING BACTERIAL INFECTIONS” (priority 2019, published 2021).
Structures can show the parent of a compound that is named as a salt.

What was measured:
[1] = system: E. coli ATCC 25922; assay: One-compartment in vitro infection (chemostat) model, E. coli ATCC 25922; format: cell-based, Escherichia coli
[2] = system: KPC-positive isolates (n = 23); format: cell-based, Enterobacteriaceae; conditions: KPC n = 23; avibactam or clavulanic acid fixed at 4 μg/mL in combinations
[3] = system: 314 Enterobacteriaceae; format: cell-based; conditions: all isolates combined; avibactam at a fixed concentration of 4 μg/mL
[4] = system: pAmpC (PlasAmpC) isolates (n = 20); format: cell-based, Enterobacteriaceae; conditions: pAmpC n = 20; avibactam or clavulanic acid fixed at 4 μg/mL in combinations
[5] = system: OXA-positive isolates (n = 22); format: cell-based, Enterobacteriaceae; conditions: OXA n = 22; avibactam or clavulanic acid fixed at 4 μg/mL in combinations
[6] = system: E. coli 136-4643; assay: One-compartment in vitro infection (chemostat) model, E. coli 136-4643; format: cell-based, Escherichia coli; conditions: E. coli 4643; for Average Log10 CFU/mL (+/− Range of Data), 5 × Ceftibuten + Avibactam at 4 mg/L MIC: Ceftibuten 400 mg q8h
[7] = system: ESBL-positive isolates (n = 28); format: cell-based, Enterobacteriaceae; conditions: ESBL n = 28; avibactam or clavulanic acid fixed at 4 μg/mL in combinations
[8] = system: E. cloacae 4184; assay: One-compartment in vitro infection (chemostat) model, E. cloacae 4184; format: cell-based, Enterobacter cloacae; conditions: for Average Log10 CFU/mL (+/− Range of Data), 5 × Ceftibuten + Avibactam at 4 mg/L MIC: Ceftibuten 400 mg q8h
[9] = system: pooled Enterobacteriaceae isolates; assay: Pharmacokinetic-pharmacodynamic analyses (Hill-type models) of the 400 mg ceftibuten dose-ranging studies; format: cell-based; conditions: 400 mg of ceftibuten, 24 hours
Protocol: Data from the avibactam dose-ranging studies, in combination with 400 mg q8h of ceftibuten, were evaluated using Hill models and non-linear least squares regression. All data was weighted using the inverse of the estimated measurement variance. […] The relationships between change in log10 CFU/mL and percent time above avibactam concentration thresholds (Ct) ranging from 0.125 mg/L to 2 mg/L were also evaluated.

[10] = Sprague-Dawley rats; cited from earlier work
[11] = human; cited from earlier work
[12] = MIC determined using 4 mg/L of avibactam
[13] = MIC determined using 8 mg/L of avibactam
[14] = MIC determined using a 1:1 ratio of ceftibuten:avibactam

Nc1nc(/C(=C/CC(=O)O)C(=O)N[C@@H]2C(=O)N3C(C(=O)O)=CCS[C@H]23)cs1 [ceftibuten, (6R,7R)-7-((Z)-2-(2-amino-4-thiazolyl)-4-carboxycrotonamido)-8-oxo-5-thia-1-azabicyclo(4.2.0)oct-2-ene-2-carboxylic acid]
Reduction (bacterial burden) ([1]; Ceftibuten 267 mg TID, Avibactam 0 mg TID): 1-log | ceftibuten % T>MIC required to achieve net bacterial stasis ([1]; administered every 8 hours): approximately 45% | bacterial burden response at 24 hours ([1]; ceftibuten 3.75 mg to 75 mg q8h): net bacterial stasis | bacterial burden response at 24 hours ([1]; ceftibuten 12.5 mg q8h): treatment failure | bacterial burden response at 24 hours ([1]; ceftibuten 100 mg and 267 mg q8h): reductions in bacterial burden | Estimated MIC90 [2]: >32 µg/mL | MIC90 with addition of avibactam [3]: 0.5 µg/mL | Estimated MIC90 [4]: >32 µg/mL | Estimated MIC90 [5]: >32 µg/mL | Average Log10 CFU/mL (+/− Range of Data), 5 × Ceftibuten + Avibactam at 4 mg/L MIC ([6]; 0 h): 0 (0) Log10 CFU/mL | Average Log10 CFU/mL (+/− Range of Data), 5 × Ceftibuten + Avibactam at 4 mg/L MIC ([6]; 24 h): 0 (0) Log10 CFU/mL | bacterial burden response over 24 hours ([6]; ceftibuten 400 mg q8h monotherapy, first 4 hours, regrowth matching control by 12 hours): slight initial reduction in bacterial burden | Estimated MIC90 [7]: >32 µg/mL | Average Log10 CFU/mL (+/− Range of Data), 5 × Ceftibuten + Avibactam at 4 mg/L MIC ([8]; 0 h): 0.99 (0.31) Log10 CFU/mL | Average Log10 CFU/mL (+/− Range of Data), 5 × Ceftibuten + Avibactam at 4 mg/L MIC ([8]; 24 h): 1.68 (0.20) Log10 CFU/mL | bacterial burden response over 24 hours ([8]; ceftibuten 200 mg q8h monotherapy): no activity | bacterial burden response over 24 hours ([8]; ceftibuten 400 mg q8h monotherapy): did not reduce the bacterial burden

NC(=O)[C@@H]1CC[C@@H]2CN1C(=O)N2OS(=O)(=O)O [avibactam, [2S,5R]-2-carbamoyl-7-oxo-1,6-diazabicyclo[3.2.1]octan-6-yl hydrogen sulfate]
Avibactam free-drug plasma % T > Concentration threshold value, target 1-log ([9]; Ct 0.5 mg/L of avibactam): 97.6% | Avibactam free-drug plasma % T > Concentration threshold value, target 2-log ([9]; Ct 0.5 mg/L of avibactam): 98.2% | Avibactam free-drug plasma % T > Concentration threshold value, target Stasis ([9]; Ct 0.5 mg/L of avibactam): 96.9% | Avibactam free-drug plasma % T > Concentration threshold value, target 1-log ([9]; Ct 1 mg/L of avibactam): 85.2% | Avibactam free-drug plasma % T > Concentration threshold value, target 2-log ([9]; Ct 1 mg/L of avibactam): 93.6% | Avibactam free-drug plasma % T > Concentration threshold value, target Stasis ([9]; Ct 1 mg/L of avibactam): 76.0% | Avibactam free-drug plasma % T > MIC value, target 1-log [9, 12]: 58.0% | Avibactam free-drug plasma % T > MIC value, target 2-log [9, 12]: 66.3% | Avibactam free-drug plasma % T > MIC value, target Stasis [9, 12]: 53.2% | Avibactam free-drug plasma AUC:MIC value, target 1-log [9, 12]: 30.8 | Avibactam free-drug plasma AUC:MIC value, target 2-log [9, 12]: 34.2 | Avibactam free-drug plasma AUC:MIC value, target Stasis [9, 12]: 28.7 | Avibactam free-drug plasma % T > MIC value, target 1-log [9, 13]: 79.4% | Avibactam free-drug plasma % T > MIC value, target 2-log [9, 13]: 80.4% | Avibactam free-drug plasma % T > MIC value, target Stasis [9, 13]: 78.7% | Avibactam free-drug plasma AUC:MIC value, target 1-log [9, 13]: 67.0 | Avibactam free-drug plasma AUC:MIC value, target 2-log [9, 13]: 128 | Avibactam free-drug plasma AUC:MIC value, target Stasis [9, 13]: 38.0 | Avibactam free-drug plasma % T > MIC value, target 1-log [9, 14]: 11.1% | Avibactam free-drug plasma % T > MIC value, target 2-log [9, 14]: 22.7% | Avibactam free-drug plasma % T > MIC value, target Stasis [9, 14]: 6.8% | Avibactam free-drug plasma AUC:MIC value, target 1-log [9, 14]: 15.4 | Avibactam free-drug plasma AUC:MIC value, target 2-log [9, 14]: 17.1 | Avibactam free-drug plasma AUC:MIC value, target Stasis [9, 14]: 14.4 | avibactam oral bioavailability (% F) [10]: 1.2 % F | oral bioavailability [11]: about 6 % F
